Data set [1] has as its system Rattus norvegicus. Briefly: Anticonvulsant activity in SwissRattus norvegicus albino (rat) assessed as protection against pentamethylene tetrazole-induced seizures at 10 mg/kg, ip administered for 15 min prior to pentamethylene tetrazole induction relative to placebo. Type of data set: functional.
Data set [2] deals with Rattus norvegicus. Briefly: Anticonvulsant activity in SwissRattus norvegicus albino (rat) assessed as protection against pentamethylene tetrazole-induced seizures at 5 mg/kg, ip administered for 15 min prior to pentamethylene tetrazole induction relative to placebo. Type of data set: functional.
For data set [3], the system named is Rattus norvegicus. Briefly: Toxicity in SwissRattus norvegicus albino (rat) up to 10 mg/kg, ip measured for 24 hr. Type of data set: organism-based, Swiss albino. Also on record: dose 10 mg/kg, route intraperitoneal. Conditions: in vivo.

Molecules are shown by their SMILES. Activity calls are given as the source filed them. The calls are words filed in the database; no cut-off is given here.

For `CCOC(=O)c1[nH]c(/C=C/c2ccc(N(C)C)cc2)c(C(=O)OCC)c1C`, the outcome in the data set on Rattus norvegicus [1] (Swiss albino) and with Rattus norvegicus [2] (Swiss albino) was inactive.

On to `CCOC(=O)c1[nH]c(/C=C/c2ccccc2)c(C(=O)OCC)c1C`, for which the outcome in the data set with Rattus norvegicus [1] (Swiss albino) and in the data set on Rattus norvegicus [2] (Swiss albino) was inactive.

As to `CCOC(=O)c1[nH]c(/C=C/c2ccc(O)cc2)c(C(=O)OCC)c1C`, the result in the data set on Rattus norvegicus [1] (Swiss albino) and with Rattus norvegicus [2] (Swiss albino) was inactive.

Take `Cc1c(C(=O)NNC(N)=S)[nH]c(/C=C/c2ccc(N(C)C)cc2)c1C(=O)NNC(N)=S`: the Activity result is “Non-toxic” in the data set on Rattus norvegicus [3], 46% in the data set with Rattus norvegicus [1] (route intraperitoneal) and 21% with Rattus norvegicus [2] (route intraperitoneal).

`Cc1c(C(=O)NNC(N)=S)[nH]c(/C=C/c2ccc(Cl)cc2)c1C(=O)NNC(N)=S`: the values for the Activity result in the data set on Rattus norvegicus [3], in the data set on Rattus norvegicus [1] (route intraperitoneal) and in the data set with Rattus norvegicus [2] (route intraperitoneal) were “Non-toxic”, 48% and 19%, respectively.

As to `Cc1c(C(=O)NNC(N)=S)[nH]c(/C=C/c2ccccc2)c1C(=O)NNC(N)=S`, the Activity result in the data set with Rattus norvegicus [3] is “Non-toxic”; in the data set with Rattus norvegicus [1] (route intraperitoneal), 66%; with Rattus norvegicus [2] (route intraperitoneal), 33%.

In the case of `Cc1c(C(=O)NNC(N)=S)[nH]c(/C=C/c2ccc(O)cc2)c1C(=O)NNC(N)=S`, the Activity result in the data set on Rattus norvegicus [3] is listed as “Non-toxic”; in the data set with Rattus norvegicus [1] (route intraperitoneal) it was 0%; with Rattus norvegicus [2] (route intraperitoneal), 0%.

Turning to `O=C1NC(=O)C(c2ccccc2)(c2ccccc2)N1` [PHENYTOIN], the figures for the Activity entry in the data set with Rattus norvegicus [3] and in the data set with Rattus norvegicus [1] (route intraperitoneal) were “Non-toxic” and 98%, respectively.

Turning to `COc1ccc(/C=C/c2[nH]c(C(=O)NNC(N)=S)c(C)c2C(=O)NNC(N)=S)cc1`, the Activity result is “Non-toxic” with Rattus norvegicus [3], 0% in the data set on Rattus norvegicus [1] (route intraperitoneal) and 0% in the data set on Rattus norvegicus [2] (route intraperitoneal).

Take `Cc1c(C(=O)NNC(N)=S)[nH]c(/C=C/c2ccc([N+](=O)[O-])cc2)c1C(=O)NNC(N)=S`: the Activity entry in the data set with Rattus norvegicus [3] was “Non-toxic”; with Rattus norvegicus [1] (route intraperitoneal) it was 0%; in the data set on Rattus norvegicus [2] (route intraperitoneal), 0%.

In the case of `CCOC(=O)c1[nH]c(/C=C/c2ccc([N+](=O)[O-])cc2)c(C(=O)OCC)c1C`, the result in the data set with Rattus norvegicus [1] (Swiss albino) and in the data set with Rattus norvegicus [2] (Swiss albino) was inactive.

Turning to `CCOC(=O)c1[nH]c(/C=C/c2ccc(Cl)cc2)c(C(=O)OCC)c1C`, the outcome with Rattus norvegicus [1] (Swiss albino) and in the data set on Rattus norvegicus [2] (Swiss albino) was inactive.

In the case of `CCOC(=O)c1[nH]c(/C=C/c2ccc(OC)cc2)c(C(=O)OCC)c1C`, the outcome in the data set with Rattus norvegicus [1] (Swiss albino) and in the data set with Rattus norvegicus [2] (Swiss albino) was inactive.

These data come from ChEMBL document CHEMBL3045397, “Synthesis and anticonvulsant activity of some new series of pyrrole derivatives” (Med Chem Res, 2012).
